Biological target: T1, human PAR-2 (hPAR-2) receptor (Homo sapiens, UniProt P55085)
T1 construct: expressed in HEK-293 cells in an endogenous manner; endogenous in cells; host or cells: HEK-293
T1 sequence (P55085 26-397): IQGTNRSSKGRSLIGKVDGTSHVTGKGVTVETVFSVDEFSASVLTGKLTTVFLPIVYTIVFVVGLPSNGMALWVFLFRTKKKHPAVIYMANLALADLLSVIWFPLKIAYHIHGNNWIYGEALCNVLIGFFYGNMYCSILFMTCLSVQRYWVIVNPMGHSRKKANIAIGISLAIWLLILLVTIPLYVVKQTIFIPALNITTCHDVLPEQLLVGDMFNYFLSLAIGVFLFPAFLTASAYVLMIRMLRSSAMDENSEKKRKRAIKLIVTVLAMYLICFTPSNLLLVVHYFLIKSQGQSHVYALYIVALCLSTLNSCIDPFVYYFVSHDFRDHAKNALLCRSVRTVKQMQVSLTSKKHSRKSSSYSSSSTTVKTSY
Assay: In vitro human PAR-2 functional antagonist activity using calcium assays
Assay type: cell-based
Details: hPAR-2 endogenously expressed in HEK-293 cells; stimulated by 2-Furoyl-LIGRLO-NH2 peptide; Fluo4AM intracellular calcium, FLIPR Tetra
Description: Example 283: In Vitro Human PAR-2 Functional Antagonist Activity Using Calcium Assays
Examples of the present invention were tested successively for their agonist and antagonist activities on human PAR-2 (hPAR-2) receptor expressed in HEK-293 cells in an endogenous manner. Compounds exert agonist activity if, by themselves in absence of the 2-Furoyl-LIGRLO-NH2 peptide (selective hPAR-2 agonist), they activate PAR-2; they exert antagonist activity if they decrease the action of the 2-Furoyl-LIGRLO-NH2 peptide on the receptor. The assay used to determine compound activity is based on calcium measurement.
Cell Culture: HEK-293 cells were maintained in Dulbecco's Modified Eagle's Medium supplemented with 10% Foetal Calf Serum, 1% Penicillin/Streptomycin at 37° C./5% CO2. Flasks for tests (F75) are seeded with 6e+06 cells 24 h before the experiment at 37° C./5% CO2.
Calcium assay: Receptor activity was detected by changes in intracellular calcium measured using the fluorescent Ca^2+ sensitive dye, Fluo4AM (Molecular Probes).
The day of the assay, medium was replaced by assay buffer (HBSS 1× (Gibco 14175-053), Hepes 20 mM, MgSO4-7H2O 1 mM, Na2CO3 3.3 mM, CaCl2—2H2O 2.6 mM, 0.5% bovine serum albumin (BSA), Probenecid 2.5 mM, 0.1 mg/mL Pluronic Acid) and complemented with 1 μM Fluo4AM and cells were incubated during 1:30 h at 37° C.
Cells were then detached, resuspended in assay buffer and seeded in 384 wells, transparent-flat bottom black walled plates (2e+04 cells per well). Plates were incubated at +22° C. for 20 min. Compounds stock solutions were prepared in 100% DMSO and dilutions in test buffer were carried out in polypropylene plates with a digital dispenser (D300e, Tecan). Compounds were added to the cells and intracellular Ca^2+ measurements were collected at the same time on FLIPR Tetra® (Molecular Devices) with specific filters (Exc: 470-495 nm/Em: 515-575 nm).
Agonist and antagonist activities of compounds were consecutively evaluated on the same cell plate. Agonist activity was first measured after 10 min incubation with the compound alone. Then, cells were stimulated by an […] of the 2-Furoyl-LIGRLO-NH2 peptide and fluorescence was recorded for an additional 5 min. EC50 of the 2-Furoyl-LIGRLO-NH2 peptide was the concentration giving 80% of the maximal 2-Furoyl-LIGRLO-NH2 response. Agonist activities are evaluated in comparison to basal signals evoked by assay buffer or maximal 2-Furoyl-LIGRLO-NH2 response. […] Antagonist activities are evaluated in comparison to basal signals evoked by assay buffer or EC50 of 2-Furoyl-LIGRLO-NH2 alone.

Row | IC50 [nM] | Compound
1 | < 500 | CC1(C)CN(c2ccc(Cl)c(F)c2)c2ccc(C(=O)N3CCOCC3(C)C)nc21 [Example 20, (1-(4-chloro-3-fluorophenyl)-3,3-dimethyl-2,3-dihydro-1H-pyrrolo[3,2-b]pyridin-5-yl)(3,3-dimethylmorpholino)methanone]
2 | < 500 | CC1(C)CN(c2ccc(Cl)c(F)c2)c2ccc(C(=O)N3CCN(c4nc(C(F)(F)F)c(C(=O)O)s4)CC3(C)C)nc21 [Example 79, 2-(4-(1-(4-chloro-3-fluorophenyl)-3,3-dimethyl-2,3-dihydro-1H-pyrrolo[3,2-b]pyridine-5-carbonyl)-3,3-dimethylpiperazin-1-yl)-4-(trifluoromethyl)thiazole-5-carboxylic acid]
3 | > 10000 | Cc1cc(N2CCN(C(=O)c3ccc4c(n3)OC(C)(C)CN(c3ccc(Cl)c(F)c3)C4)C(C)(C)C2)nc(C)c1C(=O)O [Example 87, 6-(4-(4-(4-chloro-3-fluorophenyl)-2,2-dimethyl-2,3,4,5-tetrahydropyrido[3,2-f][1,4]oxazepine-8-carbonyl)-3,3-dimethylpiperazin-1-yl)-2,4-dimethylnicotinic acid]
4 | 500 to 10000 | CCCCCCCCCCCCCCCC(=O)N(C)CCN(C)C(=O)CCOCCOCCOCCNC(=O)CCOCCOCCOCCNC(=O)CCCCCCC(=O)N1CCN(C(=O)c2cnc3c(n2)C2(CN3c3ccc(Cl)c(F)c3)CC(C)(C)C2)C(C)(C)C1 [Example 261, N-(37-(4-(5′-(4-chloro-3-fluorophenyl)-3,3-dimethyl-5′,6′-dihydrospiro[cyclobutane-1,7′-pyrrolo[2,3-b]pyrazine]-2′-carbonyl)-3,3-dimethylpiperazin-1-yl)-3-methyl-4,17,30,37-tetraoxo-7,10,13,20,23,26-hexaoxa-3,16,29-triazaheptatriacontyl)-N-methylpalmitamide]
5 | < 500 | Cc1cc(N2CCN(C(=O)c3ccc4c(n3)C(C)(C)CN4c3cccc(F)c3)C(C)(C)C2)nc(C)c1C(=O)O [Example 17, 6-(4-(1-(3-fluorophenyl)-3,3-dimethyl-2,3-dihydro-1H-pyrrolo[3,2-b]pyridine-5-carbonyl)-3,3-dimethylpiperazin-1-yl)-2,4-dimethylnicotinic acid]
6 | < 500 | Cc1cc(N2CCN(C(=O)c3cnc4c(n3)C3(CN4c4cc(F)c(F)c(F)c4)CC(C)(C)C3)C(C)(C)C2)nc(C)c1C(=O)O [Example 235, 6-(4-(3,3-dimethyl-5′-(3,4,5-trifluorophenyl)-5′,6′-dihydrospiro[cyclobutane-1,7′-pyrrolo[2,3-b]pyrazine]-2′-carbonyl)-3,3-dimethylpiperazin-1-yl)-2,4-dimethylnicotinic acid]
7 | 500 to 10000 | CC1(C)CN(c2ccc(Cl)c(F)c2)c2ccc(C(=O)N3CCC4(CC3)CNC(=O)C4)nc21 [Example 76, 8-(1-(4-chloro-3-fluorophenyl)-3,3-dimethyl-2,3-dihydro-1H-pyrrolo[3,2-b]pyridine-5-carbonyl)-2,8-diazaspiro[4.5]decan-3-one]
8 | < 500 | Cc1cc(N2CCN(C(=O)c3ccc4c(n3)C(C)(C)CN4c3ccc(F)c(F)c3)C(C)(C)C2)nc(C)c1C(=O)O [Example 14, 6-(4-(1-(3,4-difluorophenyl)-3,3-dimethyl-2,3-dihydro-1H-pyrrolo[3,2-b]pyridine-5-carbonyl)-3,3-dimethylpiperazin-1-yl)-2,4-dimethylnicotinic acid]
9 | > 10000 | CC(C)(O)CNC(=O)c1ccc2c(n1)C(C)(C)CN2c1ccc(Cl)c(F)c1 [Example 52, 1-(4-chloro-3-fluorophenyl)-N-(2-hydroxy-2-methylpropyl)-3,3-dimethyl-2,3-dihydro-1H-pyrrolo[3,2-b]pyridine-5-carboxamide]
10 | < 500 | Cc1ccc(N2CC(C)(C)c3nc(C(=O)N4CCN(c5cc(C)c(C(=O)O)c(C)n5)CC4(C)C)cnc32)cc1F [Example 185, 6-(4-(5-(3-fluoro-4-methylphenyl)-7,7-dimethyl-6,7-dihydro-5H-pyrrolo[2,3-b]pyrazine-2-carbonyl)-3,3-dimethylpiperazin-1-yl)-2,4-dimethylnicotinic acid]
11 | > 10000 | CC1(C)CC2(CN(c3ccc(Cl)c(F)c3)c3ncc(S(=O)(=O)N4CCC(N5CCNC5=O)CC4)nc32)C1 [Example 266, 1-(1-((5′-(4-chloro-3-fluorophenyl)-3,3-dimethyl-5′,6′-dihydrospiro[cyclobutane-1,7′-pyrrolo[2,3-b]pyrazin]-2′-yl)sulfonyl)piperidin-4-yl)imidazolidin-2-one]
12 | 500 to 10000 | CC1(C)C(=O)NCCN1C(=O)c1ccc2c(n1)C1(CCCC1)CN2c1ccccc1Cl [Example 10, 4-(1′-(2-chlorophenyl)-1′,2′-dihydrospiro[cyclopentane-1,3′-pyrrolo[3,2-b]pyridine]-5′-carbonyl)-3,3-dimethylpiperazin-2-one]
13 | < 500 | CC1(C)CN(c2ccc(F)cc2)c2ccc(C(=O)N3CCNC(=O)C3(C)C)nc21 [Example 15, 4-(1-(4-fluorophenyl)-3,3-dimethyl-2,3-dihydro-1H-pyrrolo[3,2-b]pyridine-5-carbonyl)-3,3-dimethylpiperazin-2-one]
14 | < 500 | CC1(C)CN(c2ccc(CC(=O)O)cn2)CCN1C(=O)c1ccc2c(n1)C1(CCC1)CN2c1ccc(Cl)c(F)c1 [Example 119, 2-(6-(4-(1′-(4-chloro-3-fluorophenyl)-1′,2′-dihydrospiro[cyclobutane-1,3′-pyrrolo[3,2-b]pyridine]-5′-carbonyl)-3,3-dimethylpiperazin-1-yl)pyridin-3-yl)acetic acid]
15 | 500 to 10000 | CC1(C)CN(c2ccc(Cl)c(F)c2)c2ccc(C(=O)N3CCC4(CC3)CNC(=O)O4)nc21 [Example 121, 8-(1-(4-chloro-3-fluorophenyl)-3,3-dimethyl-2,3-dihydro-1H-pyrrolo[3,2-b]pyridine-5-carbonyl)-1-oxa-3,8-diazaspiro[4.5]decan-2-one]
16 | < 500 | CC1(C)CN(c2ccc(Cl)c(F)c2)c2ccc(C(=O)N3CCN(c4ccc(C(C)(C)C(=O)O)cn4)CC3(C)C)nc21 [Example 175, 2-(6-(4-(1-(4-chloro-3-fluorophenyl)-3,3-dimethyl-2,3-dihydro-1H-pyrrolo[3,2-b]pyridine-5-carbonyl)-3,3-dimethylpiperazin-1-yl)pyridin-3-yl)-2-methylpropanoic acid]
17 | < 500 | Cc1cc(N2CCN(C(=O)c3cnc4c(n3)C(C)(C)CN4c3ccc(Cl)c(F)c3)C(C)(C)C2)nc(C)c1C(=O)O [Example 100, 6-(4-(5-(4-chloro-3-fluorophenyl)-7,7-dimethyl-6,7-dihydro-5H-pyrrolo[2,3-b]pyrazine-2-carbonyl)-3,3-dimethylpiperazin-1-yl)-2,4-dimethylnicotinic acid]
18 | 500 to 10000 | CC1(C)CN(C2CCCC2)c2ccc(C(=O)N3CCN(c4ccc(CC(=O)O)cn4)CC3(C)C)nc21 [Example 167, 2-(6-(4-(1-cyclopentyl-3,3-dimethyl-2,3-dihydro-1H-pyrrolo[3,2-b]pyridine-5-carbonyl)-3,3-dimethylpiperazin-1-yl)pyridin-3-yl)acetic acid]
19 | < 500 | Cc1cc(N2CCN(C(=O)c3ccc4c(n3)C(C)(C)CN4c3ccc(C4CC4)cc3)C(C)(C)C2)nc(C)c1C(=O)O [Example 279, 6-(4-(1-(4-cyclopropylphenyl)-3,3-dimethyl-2,3-dihydro-1H-pyrrolo[3,2-b]pyridine-5-carbonyl)-3,3-dimethylpiperazin-1-yl)-2,4-dimethylnicotinic acid]
20 | > 10000 | CC(C)CN1CC(C)(Cc2ccc(Cl)c(F)c2)c2ccc(C(=O)N3CCN(c4ccc(CC(=O)O)cn4)CC3(C)C)nc21 (centres unmarked) [Example 197, 2-(6-(4-(3-(4-chloro-3-fluorobenzyl)-1-isobutyl-3-methyl-2,3-dihydro-1H-pyrrolo[2,3-b]pyridine-6-carbonyl)-3,3-dimethylpiperazin-1-yl)pyridin-3-yl)acetic acid]
